Measured values from article PMC2635027 (The Journal of Biological Chemistry, 2009).

Assays:
[1] = test system: BHK21-tTA/anti-CHC cell line; format: cell-based, hamster; conditions: +tet control cells; peptides 10 μM, Tf 10 μg/ml; 37 °C; confocal microscopy
BHK21 cells = format: cell-based, hamster; conditions: BHK21 cells at 4 °C; 10 μM; confocal microscopy
[2] = test system: BHK21-tTA/anti-CHC cell line; conditions: absence of tetracycline for 2 days; cited from earlier work

| Substance | vesicular (endocytic) uptake, in words [1] | intracellular fluorescently labeled vesicles, in words (BHK21 cells) | inhibition of transferrin internalization [2] |
| --- | --- | --- | --- |
| YARAARQARA [PTD4, TAMRA-PTD4 (YARAARQARA)] | presence of PTD4-containing vesicles | not observed | – |
| transferrin: transferrin conjugated to Alexa Fluor 633, marker for clathrin-dependent endocytosis | internalized at high rates | – | 90% |
